The record followed here is patent US20110039763A1, “TARGETED ANTIMICROBIAL MOIETIES” (C3 JIAN, INC., priority 2009, published 2011).

“Also recorded” adds a separate entry of the source. Square brackets hold non-standard residues; d marks the D form. Ends that are not written are not given here. dOrn = NCCC[C@@H](N)C(=O)O

The first test has as its system microorganisms. In words: Targeting peptide binding to target microorganisms (Tables 3, 10, 12). The following applies: data not shown.
For DAANEA-GGG [BL-1], the bacterial binding result is “no bacterial binding”.

Staying with this test, now noted: microorganism(s) the targeting peptide binds; binding in aqueous buffers that varied with peptide solubility, preferably 1x PBS.
As to “1T-260 (NILYFIHDENQWEPQKAEIFRGSIKHCAWLSS; Peptide with targeting and/or antimicrobial activity)”, the “Target(s)” value was “A. naeslundii; also recorded: P. gingivalis; also recorded: S. epidermidis; also recorded: S. gordonii; also recorded: S. mitis; also recorded: S. mutans; also recorded: S. oralis; also recorded: S. sanguinis”.
“1T-261 (SFEKNKIENNLKIAQAYIYIKPKPRICQA; Peptide with targeting and/or antimicrobial activity)”: the “Target(s)” value is on record as “F. nucleatum; also recorded: S. mutans; also recorded: S. oralis; also recorded: S. sanguinis”.
Same read-out and setting: the result for “1T-264 (LEGKFYMAEDFDKTPECFKDYV; Peptide with targeting and/or antimicrobial activity)” reads “S. sanguinis”; that for “1T-266 (RAGTWLVVDEIR; Peptide with targeting and/or antimicrobial activity)”, “S. sanguinis”.
The same measure, in the same setting: the result for “1T-267 (RIKEERKNRSYKFFIWRLFDEKTGFI; Peptide with targeting and/or antimicrobial activity)” reads “A. naeslundii; also recorded: F. nucleatum; also recorded: P. gingivalis; also recorded: T. denticola; also recorded: S. mitis; also recorded: S. mutans; also recorded: S. oralis; also recorded: S. sanguinis”; that for “1T-268 (PITPKKEKCGLGTYAPKNPVFSKSRV; Peptide with targeting and/or antimicrobial activity)”, “F. nucleatum; also recorded: S. mutans; also recorded: S. oralis; also recorded: S. sanguinis”; that for “1T-269 (PLYVAAVEKINTAKKH; Peptide with targeting and/or antimicrobial activity)”, “F. nucleatum; also recorded: S. mutans; also recorded: S. oralis; also recorded: S. sanguinis”.
The same measure, in the same setting: the result for “1T-270 (VHEFDIQKILQNR; Peptide with targeting and/or antimicrobial activity)” reads “F. nucleatum; also recorded: S. mutans; also recorded: S. oralis; also recorded: S. sanguinis”; that for “1T-272 (QLAPIDKQLKAVKKIAFYESESTAAKAVTVA; Peptide with targeting and/or antimicrobial activity)”, “F. nucleatum; also recorded: S. mutans; also recorded: S. oralis; also recorded: S. sanguinis”.
For the substance “1T-273 (YNEPNYKWLESYKIYKQRCEDRTGMYYTEET; Peptide with targeting and/or antimicrobial activity)”, the “Target(s)” value is given as “F. nucleatum; also recorded: P. gingivalis; also recorded: T. denticola; also recorded: S. mitis; also recorded: S. mutans; also recorded: S. oralis”.
Still for that read-out and setting: the entry for “1T-274 (ETTTEINAIKLHRIKQRSPQGTRRVN; Peptide with targeting and/or antimicrobial activity)” is “F. nucleatum; also recorded: S. mutans; also recorded: S. oralis; also recorded: S. sanguinis”; for “1T-282 (ISLVFPAYT; Peptide with targeting and/or antimicrobial activity)” it is “F. nucleatum; also recorded: P. gingivalis; also recorded: S. gordonii; also recorded: S. mitis; also recorded: S. mutans; also recorded: S. oralis; also recorded: S. salivarious; also recorded: S. sanguinis”; for “1T-286 (LGFFNNKADLVKADTERDNRMSSLKIKDL; Peptide with targeting and/or antimicrobial activity)” it is “S. sanguinis”.
Same read-out and setting: the entry for “1T-287 (KGYPLPFQYRLNNH; Peptide with targeting and/or antimicrobial activity)” is “P. gingivalis; also recorded: T. denticola; also recorded: S. gordonii; also recorded: S. mitis; also recorded: S. mutans; also recorded: S. oralis; also recorded: S. salivarious; also recorded: S. sanguinis”; for “1T-288 (RWVGGEPSADIYLSAKDTKT; Peptide with targeting and/or antimicrobial activity)” it is “F. nucleatum; also recorded: S. gordonii; also recorded: S. salivarious; also recorded: S. sanguinis”.
Consider “1T-289 (EPSADIYLSAKDTKT; Peptide with targeting and/or antimicrobial activity)”, for which the “Target(s)” value is “F. nucleatum; also recorded: P. gingivalis; also recorded: S. gordonii; also recorded: S. mitis; also recorded: S. mutans; also recorded: S. oralis; also recorded: S. sanguinis”.
On the same count and under the same terms, the result for “1T-291 (DMKIIKLYIKILSFLFIKYCNKKLNSVKLKA; Peptide with targeting and/or antimicrobial activity)” reads “A. naeslundii; also recorded: F. nucleatum; also recorded: P. gingivalis; also recorded: T. denticola; also recorded: S. mitis; also recorded: S. mutans; also recorded: S. oralis”; that for “1T-294 (YDKIADGVFKIGKRGVL; Peptide with targeting and/or antimicrobial activity)”, “T. denticola”; that for “1T-295 (KYKLKKIIL; Peptide with targeting and/or antimicrobial activity)”, “S. mitis; also recorded: S. salivarious; also recorded: S. sanguinis”.
In the case of “1T-297 (RSLRLNNALTKLPKLWYNRIKEAFYAYNDYDK; Peptide with targeting and/or antimicrobial activity)”, the “Target(s)” value is on record as “A. naeslundii; also recorded: F. nucleatum; also recorded: T. denticola; also recorded: S. mitis; also recorded: S. mutans; also recorded: S. oralis”.
Still for that read-out and setting: the entry for “1T-301 (SKLPRVLDASLKL; Peptide with targeting and/or antimicrobial activity)” is “F. nucleatum; also recorded: S. gordonii; also recorded: S. sanguinis”; for “1T-304 (STAGEASRRTASEASRRTAAKLRG; Peptide with targeting and/or antimicrobial activity)” it is “P. gingivalis”; for “CHA0 (D[dOrn]KTAA[dOrn]K; not fully specified (bridges))” it is “P. fluorescens”.
Still for that read-out and setting: the entry for “PF-014 (HPTDNKHN; Peptide with targeting and/or antimicrobial activity)” is “E. coli; also recorded: C. jeikeium”; for “PF-016 (RKQYDDLSFNFLY; Peptide with targeting and/or antimicrobial activity)” it is “S. epidermidis; also recorded: E. faecalis; also recorded: C. jeikeium”.
Same read-out and setting: the result for “PF-018 (YYKTYFKEV; Peptide with targeting and/or antimicrobial activity)” reads “E. coli; also recorded: C. jeikeium”; that for “PF-038 (MAYKDEGKETKFAVKGYKD; Peptide with targeting and/or antimicrobial activity)”, “M. luteus”; that for “PF-039 (MLEEKNKSL; Peptide with targeting and/or antimicrobial activity)”, “P. mirabilis; also recorded: C. jeikeium”.
For “PF-044 (KLKKYIHKPD; Peptide with targeting and/or antimicrobial activity)”, the “Target(s)” value is “S. epidermidis and M. luteus and MRSA and C. jeikeium”.
“PF-047 (NQEPSLQQDKEQKDNKG; Peptide with targeting and/or antimicrobial activity)”: the “Target(s)” value was “S. mutans”.
Still for that read-out and setting: the entry for “PF-050 (SYYLKRREEKGK; Peptide with targeting and/or antimicrobial activity)” is “S. epidermidis; also recorded: M. luteus; also recorded: E. coli; also recorded: C. jeikeium”.
Still for that read-out and setting: the entry for “PF-054 (VSISRFIGGGHVFNGNNKRNL; Peptide with targeting and/or antimicrobial activity)” is “S. epidermidis; also recorded: E. coli”; for “PF-055 (GHVFNGNNKRNL; Peptide with targeting and/or antimicrobial activity)” it is “S. mutans”.
On the same count and under the same terms, the entry for “PF-060 (HSSHL; Peptide with targeting and/or antimicrobial activity)” is “E. coli; also recorded: C. albicans; also recorded: C. jeikeium”; for “PF-062 (MKKKRINNDILGRMIYSSSIDKRNLYNLKYYE; Peptide with targeting and/or antimicrobial activity)” it is “S. epidermidis and M. luteus and E. coli and P. aeruginosa and MRSA and S. pneumoniae and E. faecalis and C. jeikeium”.

Still in this test, the particulars now being: microorganism(s) the targeting peptide binds; binding in aqueous buffers varied with peptide solubility, preferably 1x PBS.
With AIEGVIKKGACFKLLRHEMF [PF-167], the “Target(s)” value is “S. epidermidis and E. coli and C. albicans and MRSA and C. jeikeium and C. jejuni”.
On the same count and under the same terms, the result for “HIKETR (Peptide with targeting and/or antimicrobial activity) [PF-222]” reads “S. epidermidis”; that for “MKKLVAALAVIVILTGCVYDPVNYDKIHDQEFQDHLRQNG [PF-252]”, “S. mutans”.
Same read-out and setting: the entry for MLTSRKKRLKKIVEEQNKKDESI [PF-336] is “S. mutans; also recorded: E. coli”; for PEIIKIVSGLL [PF-758] it is “S. epidermidis and M. luteus and E. coli and MRSA and S. pneumoniae and E. faecalis and C. jeikeium”; for “PF670 (chain 1 TVIVAPMHSGV; chain 2 TVIVAPMHSGV; Peptide with targeting and/or antimicrobial activity)” it is “Mycobacteria spp”.
For “PF-097 (QPTQGEQGTRPRRPTPMRGLLI; Peptide with targeting and/or antimicrobial activity)”, the “Target(s)” value is given as “C. jeikeium”.
Still for that read-out and setting: the entry for “PF-101 (DPVPERQEQACACHRTAKPGK; Peptide with targeting and/or antimicrobial activity)” is “S. mutans”; for “PF-104 (ERTAVNDLWI; Peptide with targeting and/or antimicrobial activity)” it is “MRSA and C. jeikeium”.
On the same count and under the same terms, the result for “PF-130 (LQRSDEESMPRRHEKYS; Peptide with targeting and/or antimicrobial activity)” reads “E. faecalis; also recorded: C. jeikeium; also recorded: C. jejuni”; that for “PF-131 (RRAAARTKGNRR; Peptide with targeting and/or antimicrobial activity)”, “S. epidermidis and E. coli and MRSA and C. jeikeium”; that for “PF-132 (RPGDGAAEQGRSR; Peptide with targeting and/or antimicrobial activity)”, “S. epidermidis; also recorded: C. jeikeium”.
